ChEMBL document CHEMBL1201862, “PubChem BioAssay data set” (2004)
Active and inactive are the calls of the source.

Experiments:
[1] = target: T1, Sentrin-specific protease 8 (Homo sapiens, UniProt Q96LD8); format: functional
T1 sequence (Q96LD8 whole entry): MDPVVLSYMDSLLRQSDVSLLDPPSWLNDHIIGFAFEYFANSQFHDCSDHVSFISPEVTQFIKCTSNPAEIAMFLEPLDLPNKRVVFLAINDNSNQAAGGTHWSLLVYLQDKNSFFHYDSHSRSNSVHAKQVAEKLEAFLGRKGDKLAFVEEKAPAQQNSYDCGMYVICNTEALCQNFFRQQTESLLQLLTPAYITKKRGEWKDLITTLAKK

[2] = system: Streptococcus sp. 'group A'; experiment: growth inhibition of control SK(-) GAS strain, dose response, counter-screen for streptokinase expression inhibitor project, luminescence, kanamycin, BacTiterGlo, confirmation (AID 1900); format: functional, organism-based
[3] = target: T1, Sentrin-specific protease 8; format: functional; remark: listed apart in the source
Streptococcus = experiment: Group A Streptococcus viability loss, dose response, counter-screen for streptokinase expression inhibitor project, luminescence, BacTiterGlo (AID 1915); format: functional, organism-based;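 further: potency for reduction of bacterial viability or growth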
[4] = A cytotoxicity screen of small molecule inhibitors of the PhoP region in Salmonella typhi identified in the primary screen. [Related pubchem assays: 1850, 1864, 1985 ]; format: functional
Streptokinase A = target: T2, Streptokinase A (Streptococcus pyogenes serotype M1, UniProt P10520); experiment: S. pyogenes streptokinase expression inhibitors, potency, dose response, plasminogen activation absorbance, OD405 (AID 1914); format: functional, Streptococcus pyogenes M1 GAS;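 further: secreted streptokinase activity via plasminogen activation per viability signal from cell pellet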
T2 sequence (P10520 whole entry): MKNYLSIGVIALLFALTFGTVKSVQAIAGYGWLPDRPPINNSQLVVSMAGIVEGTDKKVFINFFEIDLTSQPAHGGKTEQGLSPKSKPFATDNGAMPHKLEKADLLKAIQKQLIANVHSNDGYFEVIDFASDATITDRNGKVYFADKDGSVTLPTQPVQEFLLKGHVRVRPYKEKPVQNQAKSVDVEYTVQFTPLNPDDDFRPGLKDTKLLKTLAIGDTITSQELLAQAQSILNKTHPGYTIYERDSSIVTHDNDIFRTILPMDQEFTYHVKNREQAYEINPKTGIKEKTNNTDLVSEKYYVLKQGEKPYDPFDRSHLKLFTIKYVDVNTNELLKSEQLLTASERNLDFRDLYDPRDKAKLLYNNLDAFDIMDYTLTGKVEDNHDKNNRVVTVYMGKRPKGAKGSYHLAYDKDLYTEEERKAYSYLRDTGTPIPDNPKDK

[5] = inhibitors of HIV Env-driven cell fusion, dose response, cherry-pick (AID 652057); format: functional, cell-based
[6] = CEM21 lymphoblast cell cytotoxicity, dose response, cytotoxicity control for viral fusion inhibitor project, CellTiter-Glo luminescence, cherry-picked (AID 652042); format: functional, cell-based;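 further: potency for signal decrease meaning cytotoxicity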
[7] = inhibitors of clade B AD8 Env fusion, dose response, cell-based, cherry-pick (AID 652062); format: functional;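 further: luciferase signal from cell-cell fusion driven by HIV-1 clade B AD8 Env; potency is for inhibitors of fusion seen as a drop in luminescence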
[8] = target: Luciferin 4-monooxygenase (Photinus pyralis, UniProt P08659); experiment: firefly luciferase enzyme inhibitors, dose response, biochemical, luminescence (AID 1891)
Luciferin 4-monooxygenase, sequence (P08659 whole entry): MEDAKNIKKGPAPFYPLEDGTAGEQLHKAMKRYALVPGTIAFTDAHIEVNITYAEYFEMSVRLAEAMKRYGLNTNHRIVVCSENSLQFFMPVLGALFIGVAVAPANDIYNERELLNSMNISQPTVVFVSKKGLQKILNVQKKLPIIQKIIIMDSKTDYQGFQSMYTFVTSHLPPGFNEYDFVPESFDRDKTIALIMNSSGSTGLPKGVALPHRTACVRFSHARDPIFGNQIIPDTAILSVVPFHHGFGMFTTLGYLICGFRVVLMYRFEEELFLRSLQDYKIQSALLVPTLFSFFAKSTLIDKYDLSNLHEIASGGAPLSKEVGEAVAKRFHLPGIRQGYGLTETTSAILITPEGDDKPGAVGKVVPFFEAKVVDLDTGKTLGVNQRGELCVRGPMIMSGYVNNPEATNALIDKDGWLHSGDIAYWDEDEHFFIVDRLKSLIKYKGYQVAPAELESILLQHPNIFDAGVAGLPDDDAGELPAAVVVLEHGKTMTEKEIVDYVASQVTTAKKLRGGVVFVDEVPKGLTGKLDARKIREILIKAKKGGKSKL

[9] = Luminescence Cell-Based Dose Confirmation HTS to Identify Inhibitors of Platelet Dense Granule Release. [Related pubchem assays: 1663 (Primary HTS), 1678 (Summary of Project)]; format: functional
[10] = HepG2 cell cytotoxicity, dose response, cytotoxicity control, ATP luminescence, cherry-pick, activator set 2 (AID 1053143); format: functional, cell-based
[11] = Counterscreen for activators of the function of SWI/SNF related, matrix associated, actin dependent regulator of chromatin, subfamily a, member 2 (SMARCA2, BRM): Luminescence-based cell-based high throughput dose response assay to identify non-selective compounds using the VP16 reporter assay.; format: functional
[12] = target: SWI/SNF-related matrix-associated actin-dependent regulator of chromatin subfamily A member 2 (Homo sapiens, UniProt P51531); experiment: Luminescence-based cell-based high throughput dose response assay to identify activators of the function of SWI/SNF related, matrix associated, actin dependent regulator of chromatin, subfamily a, member 2 (SMARCA2, BRM).; format: functional
SWI/SNF-related matrix-associated actin-dependent regulator of chromatin subfamily A member 2, sequence (P51531 whole entry): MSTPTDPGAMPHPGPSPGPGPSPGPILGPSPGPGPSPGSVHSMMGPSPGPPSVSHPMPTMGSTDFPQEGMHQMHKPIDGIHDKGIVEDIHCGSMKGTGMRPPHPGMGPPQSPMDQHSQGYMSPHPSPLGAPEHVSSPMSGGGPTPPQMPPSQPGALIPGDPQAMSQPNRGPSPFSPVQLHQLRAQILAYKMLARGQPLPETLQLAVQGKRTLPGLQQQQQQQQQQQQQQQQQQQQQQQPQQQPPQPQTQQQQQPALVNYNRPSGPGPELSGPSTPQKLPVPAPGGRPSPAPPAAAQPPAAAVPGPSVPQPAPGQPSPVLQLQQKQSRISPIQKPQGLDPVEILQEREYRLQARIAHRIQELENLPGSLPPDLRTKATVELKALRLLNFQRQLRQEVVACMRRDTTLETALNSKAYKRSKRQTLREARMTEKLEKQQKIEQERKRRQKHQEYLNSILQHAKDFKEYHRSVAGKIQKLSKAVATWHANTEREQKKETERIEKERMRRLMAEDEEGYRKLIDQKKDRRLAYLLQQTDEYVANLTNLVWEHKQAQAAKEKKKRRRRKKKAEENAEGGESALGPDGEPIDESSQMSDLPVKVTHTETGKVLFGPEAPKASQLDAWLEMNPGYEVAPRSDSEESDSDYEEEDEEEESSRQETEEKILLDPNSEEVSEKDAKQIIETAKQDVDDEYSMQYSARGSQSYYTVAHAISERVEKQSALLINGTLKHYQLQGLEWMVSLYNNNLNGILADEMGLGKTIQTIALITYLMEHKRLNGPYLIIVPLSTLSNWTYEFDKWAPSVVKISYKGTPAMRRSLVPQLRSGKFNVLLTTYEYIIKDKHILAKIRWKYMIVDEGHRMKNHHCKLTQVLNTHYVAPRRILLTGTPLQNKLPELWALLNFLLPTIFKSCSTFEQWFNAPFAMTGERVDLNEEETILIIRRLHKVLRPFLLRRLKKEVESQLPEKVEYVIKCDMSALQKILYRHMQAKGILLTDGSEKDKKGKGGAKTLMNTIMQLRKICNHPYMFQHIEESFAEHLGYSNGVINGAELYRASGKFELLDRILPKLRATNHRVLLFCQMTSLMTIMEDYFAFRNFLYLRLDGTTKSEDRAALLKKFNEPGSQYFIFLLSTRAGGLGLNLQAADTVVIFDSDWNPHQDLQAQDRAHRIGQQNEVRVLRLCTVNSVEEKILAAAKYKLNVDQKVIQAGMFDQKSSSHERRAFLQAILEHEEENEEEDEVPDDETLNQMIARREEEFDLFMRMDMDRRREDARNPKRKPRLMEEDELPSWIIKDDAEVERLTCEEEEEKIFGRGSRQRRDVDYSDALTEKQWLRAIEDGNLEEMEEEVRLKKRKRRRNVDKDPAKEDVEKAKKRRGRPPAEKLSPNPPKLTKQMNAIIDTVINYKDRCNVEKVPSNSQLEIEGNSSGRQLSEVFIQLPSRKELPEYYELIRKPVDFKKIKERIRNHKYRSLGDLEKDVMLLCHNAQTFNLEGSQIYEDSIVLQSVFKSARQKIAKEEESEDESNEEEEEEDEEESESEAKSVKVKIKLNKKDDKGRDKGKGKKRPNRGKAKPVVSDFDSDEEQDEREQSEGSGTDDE

Hexokinase = target: T3, Hexokinase (Trypanosoma brucei, UniProt Q38C41); experiment: Confirmation assay for inhibitors of Trypanosoma brucei hexokinase 1-Analogue-first series. [Related pubchem assays (depositor defined):AID1430, AID1632, AID2516, AID2560, AID2579, AID2600, AID449725, AID492951]; format: functional
T3 sequence (Q38C41 whole entry): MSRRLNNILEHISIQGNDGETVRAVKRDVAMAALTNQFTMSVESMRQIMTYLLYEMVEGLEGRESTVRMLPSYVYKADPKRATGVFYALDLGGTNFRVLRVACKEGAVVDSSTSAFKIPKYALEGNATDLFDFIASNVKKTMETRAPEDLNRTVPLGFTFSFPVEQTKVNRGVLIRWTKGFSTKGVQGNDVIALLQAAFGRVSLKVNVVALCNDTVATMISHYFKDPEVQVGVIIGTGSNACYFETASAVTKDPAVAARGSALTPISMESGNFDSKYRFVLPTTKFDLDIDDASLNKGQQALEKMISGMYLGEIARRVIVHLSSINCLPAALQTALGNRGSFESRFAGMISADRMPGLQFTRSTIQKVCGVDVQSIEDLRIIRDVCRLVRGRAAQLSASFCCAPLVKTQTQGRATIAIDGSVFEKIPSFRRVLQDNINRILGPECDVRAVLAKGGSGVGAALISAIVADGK

[13] = Fluorescence-based cell-based high throughput dose response assay for inhibitors of the interaction of nucleotide-binding oligomerization domain containing 2 (NOD2) and the receptor-interacting serine-threonine kinase 2 (RIPK2).; format: functional; conditions: Homo sapiens
[14] = target: Glucose-6-phosphate 1-dehydrogenase (Homo sapiens, UniProt P11413); experiment: human G6PD enzyme inhibitors, dose response, selectivity assay for P. falciparum G6PD inhibitor project, biochemical, fluorescence (AID 504792); format: functional
Glucose-6-phosphate 1-dehydrogenase, sequence (P11413 whole entry): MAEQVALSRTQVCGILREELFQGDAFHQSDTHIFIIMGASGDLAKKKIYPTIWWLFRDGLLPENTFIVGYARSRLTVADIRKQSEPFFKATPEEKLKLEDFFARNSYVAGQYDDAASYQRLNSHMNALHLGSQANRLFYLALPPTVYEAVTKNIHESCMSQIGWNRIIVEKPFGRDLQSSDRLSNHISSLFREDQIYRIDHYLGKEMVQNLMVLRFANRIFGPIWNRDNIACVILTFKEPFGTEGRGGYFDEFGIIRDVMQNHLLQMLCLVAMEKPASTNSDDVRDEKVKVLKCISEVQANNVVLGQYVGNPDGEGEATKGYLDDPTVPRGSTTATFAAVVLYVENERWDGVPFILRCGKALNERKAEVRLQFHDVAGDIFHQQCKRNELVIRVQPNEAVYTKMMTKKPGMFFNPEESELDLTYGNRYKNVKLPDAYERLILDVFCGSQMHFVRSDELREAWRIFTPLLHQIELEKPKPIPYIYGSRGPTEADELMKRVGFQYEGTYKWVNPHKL

Beta Lactamase = Beta Lactamase (Pseudomonas aeruginosa, UniProt Q932Y6); experiment: beta-lactamase reporter inhibitor potency, dose response, artefact control for NOD2-RIPK2 interaction inhibitor project, BLA reporter cells, FRET fluorescence (AID 651552); format: functional, cell-based
Beta Lactamase, sequence (Q932Y6 whole entry): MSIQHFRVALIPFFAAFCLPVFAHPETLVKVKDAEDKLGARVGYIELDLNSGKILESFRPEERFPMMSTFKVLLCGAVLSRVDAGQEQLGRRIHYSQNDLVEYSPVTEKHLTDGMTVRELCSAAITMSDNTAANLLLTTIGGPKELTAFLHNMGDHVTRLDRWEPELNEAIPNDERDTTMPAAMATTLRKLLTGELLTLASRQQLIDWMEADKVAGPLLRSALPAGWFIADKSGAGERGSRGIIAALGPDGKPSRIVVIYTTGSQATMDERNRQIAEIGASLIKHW

[15] = target: T4, Rac GTPase-activating protein 1 (Homo sapiens, UniProt Q9H0H5); experiment: MgcRacGAP GTPase-activating activity inhibitors, confirmation, biochemical, ADP Hunter fluorescence, primary and confirmatory (AID 624330); format: functional
T4 sequence (Q9H0H5 whole entry): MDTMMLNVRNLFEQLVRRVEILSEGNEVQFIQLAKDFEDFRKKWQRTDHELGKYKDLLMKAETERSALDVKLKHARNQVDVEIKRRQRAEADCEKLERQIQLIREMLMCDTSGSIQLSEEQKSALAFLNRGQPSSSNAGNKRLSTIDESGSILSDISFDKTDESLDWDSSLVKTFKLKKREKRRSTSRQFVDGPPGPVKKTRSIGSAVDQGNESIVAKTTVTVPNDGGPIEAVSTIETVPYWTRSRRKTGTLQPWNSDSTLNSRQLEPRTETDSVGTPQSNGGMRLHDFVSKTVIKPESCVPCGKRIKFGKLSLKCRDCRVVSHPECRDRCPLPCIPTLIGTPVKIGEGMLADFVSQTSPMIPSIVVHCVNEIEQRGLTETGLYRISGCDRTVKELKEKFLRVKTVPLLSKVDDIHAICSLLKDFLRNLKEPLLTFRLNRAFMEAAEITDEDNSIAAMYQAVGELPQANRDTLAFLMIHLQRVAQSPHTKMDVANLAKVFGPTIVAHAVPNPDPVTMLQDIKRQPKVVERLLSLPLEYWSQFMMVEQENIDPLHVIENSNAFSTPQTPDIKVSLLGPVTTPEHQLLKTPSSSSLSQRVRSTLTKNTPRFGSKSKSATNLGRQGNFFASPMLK

Paired box protein Pax-8 = Paired box protein Pax-8 (Homo sapiens, UniProt Q06710); experiment: inhibitors of PAX8-driven TPO luciferase reporter, dose response, RMG-I cells, cherry-pick (AID 687027); format: functional, cell-based;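 further: luciferase reporter driven by Pax8 target thyroperoxidase promoter measured by SteadyGlo luminescence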
Paired box protein Pax-8, sequence (Q06710 whole entry): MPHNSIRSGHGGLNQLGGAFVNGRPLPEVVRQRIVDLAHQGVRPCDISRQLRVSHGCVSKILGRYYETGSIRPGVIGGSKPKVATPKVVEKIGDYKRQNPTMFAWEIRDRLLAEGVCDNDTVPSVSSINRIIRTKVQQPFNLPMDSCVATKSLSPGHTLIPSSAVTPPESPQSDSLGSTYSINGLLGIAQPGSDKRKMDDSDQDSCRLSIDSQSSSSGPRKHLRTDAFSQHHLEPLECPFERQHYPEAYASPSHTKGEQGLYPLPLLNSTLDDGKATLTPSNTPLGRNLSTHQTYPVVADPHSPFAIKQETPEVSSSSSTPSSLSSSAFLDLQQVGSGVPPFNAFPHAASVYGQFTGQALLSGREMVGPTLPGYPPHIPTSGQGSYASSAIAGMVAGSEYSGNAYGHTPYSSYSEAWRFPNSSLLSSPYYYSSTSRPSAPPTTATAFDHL

[16] = non-specific cell cytotoxicity, dose response, cytotoxicity control for PAX8 inhibitor project, plate reader, dry powder samples (AID 743021); format: functional, cell-based
[17] = NIH:OVCAR-3 ovarian cancer cell cytotoxicity, dose response, PAX8 inhibitor project, plate reader, dry powder samples (AID 743044); format: functional, cell-based

O=[N+]([O-])c1ccc(/C=[N+](\[O-])CCO)o1
IC50 [1]: 43.4 µM (active)
EC50 [2]: 3.97 µM (active)
IC50 [3]: 16.7 µM (active)
EC50 (Streptococcus): 9.91 µM (active)
EC50 [4]: > 50 µM (active)
EC50 (Streptokinase A): > 150 µM (not active)

COc1cccc(S(=O)(=O)N2CC3(CN(C(=O)Nc4cccc(F)c4)[C@@H](CO)c4[nH]c5cc(OC)ccc5c43)C2)c1
AC50 [5]: 986 nM (active)
AC50 [6]: 26.1 µM (active)
AC50 [7]: 27.1 µM (active)

CCOC(=O)c1sc(NC(=O)c2sccc2C)cc1C
EC50 [8]: 409 nM (active)
EC50 [9]: 3.04 µM (active)
AC50 [10]: 12.8 µM (active)

O=C(Cn1sc2ccccc2c1=O)Nc1ccc(F)cc1
EC50 [11]: > 91.1 µM (inactive)
EC50 [12]: > 91.1 µM (inactive)
IC50 (Hexokinase): 6.23 µM (active)
IC50 [13]: 9.51 µM (active)
IC50 [14]: 14.9 µM (active)
IC50 (Beta Lactamase): 19.3 µM (inactive)
IC50 [15]: 56.2 µM (active)

O=C1CN(S(=O)(=O)Cc2ccccc2)C[C@H]2[C@H](c3ccc(C#Cc4ccc(F)cc4)cc3)[C@H](CO)N12
AC50 (Paired box protein Pax-8): 8.12 µM (active)
AC50 [16]: 56 µM (active)
AC50 [17]: 32.6 µM (active)

N=C(N)N/N=C(\c1ccc(F)cc1)c1ccc(C(F)(F)F)cc1
AC50 (Paired box protein Pax-8): 3.32 µM (active)
AC50 [16]: 39.9 µM (active)
